Data on 21 molecules can be found in ChEMBL document CHEMBL3351235, “β-amino-alcohol tethered 4-aminoquinoline-isatin conjugates: synthesis and antimalarial evaluation” (Eur J Med Chem, 2014).

Data set [1] in a line: Cytotoxicity against human HCT116 cells at 20 uM after 48 hrs by MTT assay relative to untreated control. As to conditions: hct-116, 48 h. For orientation: Tetrazolium dyes change colour on reduction, which living cells bring about.
A further data set has as its system Plasmodium falciparum. Briefly: Antimalarial activity against chloroquine-resistant ring stage Plasmodium falciparum W2 assessed as parasitemia after 48 hrs by flow cytometry. The format is functional, organism-based. As to conditions: W2, 48 h. (In general: In flow cytometry, cells or beads pass a laser one at a time.)
Data set [2] can be described thus: Cytotoxicity against human HCT116 cells at 2 uM after 48 hrs by MTT assay relative to untreated control. The note with it: hct-116, 48 h.
A short description of data set [3]: Cytotoxicity against human HCT116 cells at 0.2 uM after 48 hrs by MTT assay relative to untreated control. As to conditions: hct-116, 48 h.

SMILES strings stand for the structures.

The IC50 is the concentration that inhibits the measured activity by half. Take `O=C1C(=O)N(CC(CO)NCCNc2ccnc3cc(Cl)ccc23)c2ccc(Cl)cc21` (centres undefined): the values for the INH in data set [1], in data set [2] and in data set [3] were 88%, -11% and 0%, respectively. In the data set with Plasmodium falciparum, the IC50 was 11.7 nM.
Take `O=C1C(=O)N(CC(CO)NCCNc2ccnc3cc(Cl)ccc23)c2ccc(F)cc21` (centres undefined): the concentration for half-maximal inhibition (IC50) in the data set on Plasmodium falciparum amounted to 488 nM.
Turning to `O=C1C(=O)N(CC(CO)NCCNc2ccnc3cc(Cl)ccc23)c2ccccc21` (centres undefined), the INH in data set [1] is reported as 91%; in data set [2], 2%; in data set [3] it was 0%. Moreover, the half-inhibitory concentration (IC50) with Plasmodium falciparum stood at 24.9 nM.
As to `O=C1C(=O)N(CC(CO)NCCCNc2ccnc3cc(Cl)ccc23)c2ccccc21` (centres undefined), the INH in data set [1] is 85%; in data set [2] it was -12%; in data set [3], 2%. Further, the IC50 with Plasmodium falciparum was found to be 75.5 nM.
For the molecule `O=C1C(=O)N(CC(CO)NCCCNc2ccnc3cc(Cl)ccc23)c2ccc(Cl)cc21` (centres undefined), the values for the INH in data set [1], in data set [2] and in data set [3] were 46%, 2% and 0%, respectively. For the same molecule, in the data set on Plasmodium falciparum, the 50% inhibitory concentration (IC50) came to 13.5 nM.
Turning to `Cc1ccc2c(c1)C(=O)C(=O)N2CC(CO)NCCCNc1ccnc2cc(Cl)ccc12` (centres undefined), the IC50 in the data set on Plasmodium falciparum was 302 nM.
In the case of `O=C1C(=O)N(CC(CO)NCCCNc2ccnc3cc(Cl)ccc23)c2ccc(F)cc21` (centres undefined), the INH in data set [1] is 66%; in data set [2], 12%; in data set [3] it was -2%. Moreover, the IC50 in the data set on Plasmodium falciparum was 72.3 nM.
Regarding `O=C1C(=O)N(CC(CO)NCCCCNc2ccnc3cc(Cl)ccc23)c2ccccc21` (centres undefined), the INH is listed as 37% in data set [1], -5% in data set [2] and 0% in data set [3]. In the data set on Plasmodium falciparum, the 50% inhibitory concentration (IC50) was 48.7 nM.
On to `O=C1C(=O)N(CC(CO)NCCCCNc2ccnc3cc(Cl)ccc23)c2ccc(Cl)cc21` (centres undefined), for which the IC50 with Plasmodium falciparum is 101 nM.
For `Cc1ccc2c(c1)C(=O)C(=O)N2CC(CO)NCCCCNc1ccnc2cc(Cl)ccc12` (centres undefined), the half-inhibitory concentration (IC50) with Plasmodium falciparum stood at 58 nM.
Consider `O=C1C(=O)N(CC(CO)NCCCCNc2ccnc3cc(Cl)ccc23)c2ccc(F)cc21` (centres undefined), for which the INH in data set [1] is 83%; in data set [2] it was 0%; in data set [3] it was -1%. Moreover, the IC50 in the data set with Plasmodium falciparum worked out at 45.3 nM.
In the case of `O=C1C(=O)N(CC(CO)NCCCCCCNc2ccnc3cc(Cl)ccc23)c2ccccc21` (centres undefined), the IC50 in the data set with Plasmodium falciparum was 62.9 nM.
`O=C1C(=O)N(CC(CO)NCCCCCCNc2ccnc3cc(Cl)ccc23)c2ccc(Cl)cc21` (centres undefined): in the data set on Plasmodium falciparum, the IC50 came out at 49.7 nM.
For the molecule `Cc1ccc2c(c1)C(=O)C(=O)N2CC(CO)NCCCCCCNc1ccnc2cc(Cl)ccc12` (centres undefined), the IC50 in the data set on Plasmodium falciparum came to 55.8 nM.
As to `O=C1C(=O)N(CC(CO)NCCCCCCNc2ccnc3cc(Cl)ccc23)c2ccc(F)cc21` (centres undefined), the half-maximal inhibitory concentration (IC50) with Plasmodium falciparum was determined as 59.6 nM.
Still for that read-out and setting: the result for `O=C1C(=O)N(CC(CO)N2CCN(c3ccnc4cc(Cl)ccc34)CC2)c2ccccc21` (centres undefined) reads 216 nM; that for `O=C1C(=O)N(CC(CO)N2CCN(c3ccnc4cc(Cl)ccc34)CC2)c2ccc(Cl)cc21` (centres undefined), 1960 nM.
Take `Cc1ccc2c(c1)C(=O)C(=O)N2CC(CO)N1CCN(c2ccnc3cc(Cl)ccc23)CC1` (centres undefined): the IC50 in the data set with Plasmodium falciparum was 1220 nM.
For `O=C1C(=O)N(CC(CO)N2CCN(c3ccnc4cc(Cl)ccc34)CC2)c2ccc(F)cc21` (centres undefined), the IC50 with Plasmodium falciparum amounted to 1850 nM.
Still for that read-out and setting: the result for `C[C@@H]1CC[C@H]2[C@@H](C)C(=O)O[C@@H]3O[C@@]4(C)CC[C@@H]1[C@]32OO4` [ARTEMISININ] reads 4.37 nM.
As for `COc1cccc2c1C(=O)c1c(O)c3c(c(O)c1C2=O)C[C@@](O)(C(=O)CO)C[C@@H]3O[C@H]1C[C@H](N)[C@H](O)[C@H](C)O1` [DOXORUBICIN], the values for the INH in data set [1], in data set [2] and in data set [3] were 79%, 79% and 84%, respectively.
